Laboratory results: patent US20240090503A1, “FUNGICIDAL OXADIAZOLES AND THEIR MIXTURES” (FMC CORPORATION, priority 2020, published 2024)
Like-named read-outs stand apart in the source and are kept apart here. Marks after values point to notes of the source that are not given here.

Experiments:
Assay type in all cases: in vivo
[1] = system: Phakopsora pachyrhizi (the causal agent of Asian soybean rust); assay: Test E: compounds alone and mixtures sprayed on soybean seedlings, Asian soybean rust, observed and Colby-expected disease control; set-up: key to Test E Obsd: 100 = 100% disease control, 0 = no disease control; conditions: for pest or weed control at 161.74 ppm: 161.740 ppm
Source text: The general protocol for preparing test compositions for TEST E was as follows: Compound 316, Compound 376, Compound 225, Compound 229, Compound 257, Compound 394, Compound 506, Compound 507, Compound 508, Compound 509, Compound 511, Compound 512, methyl N-[[5-[1-[2,6-difluoro-4-(1-methylethyl)phenyl]-1H-pyrazol-3-yl]-2-methylphenyl]methyl]carbamate (b54.11a), methyl N-[[5-[l-(4-cyclopropyl-2,6-difluorophenyl)-1H-pyrazol-3-yl]-2-methylphenyl]methyl]carbamate (b54.11d), ethyl 1-[[4-[[(1Z)-2-ethoxy-3,3,3-trifluoro-1-propen-1-yl]oxy]phenyl]methyl]-1H-pyrazole-4-carboxylate (b54.12a), ethyl 1-[[4-[[2-(trifluoromethyl)-1,3-dioxolan-2-yl]methoxy]phenyl]methyl]-1H-pyrazole-4-carboxylate (b54.13a), azoxystrobin, benzovindiflupyr, bixafen, chlorothalonil, cyproconazole, epoxiconazole, fenpropidin, fenpropimorph, fluindapyr, flutriafol, fluxapyroxad, inpyrfluxam, metominostrobin, picoxystrobin, prothioconazole, pydiflumetofen, pyraclostrobin, tebuconazole and trifloxystrobin were obtained as unformulated, technical-grade materials. Copper hydroxide and mancozeb was obtained as a formulated product marketed under the trademarks KOCIDE 3000 and MANZATE, respectively. Unformulated materials were first dissolved in acetone and then suspended at the desired concentration (in ppm) in acetone and purified water (50/50 mixture by volume) containing 250 ppm of the surfactant Trem® 014 (polyhydric alcohol esters). Formulated materials were dispersed in sufficient water to give the desired concentration, and neither organic solvent nor surfactant was added to the suspension. The resulting test mixtures were then used in TEST E. The tests were run on four individual plants and the results reported as the mean average of the four plants.
The presence of a synergistic effect between two active ingredients can be established with the aid of the Colby equation (see Colby, S. R. “Calculating Synergistic and Antagonistic Responses of Herbicide Combinations”, Weeds, (1967), 15, 20-22):
Using the method of Colby, the presence of a synergistic interaction between two active ingredients is established by first calculating the predicted activity, p, of the mixture based on activities of the two components applied alone. If p is lower than the experimentally established effect, synergism has occurred. In the equation above, A is the fungicidal activity in percentage control of one component applied alone at rate x. The B term is the fungicidal activity in percentage control of the second component applied at rate y. The equation estimates p, the expected fungicidal activity of the mixture of A at rate x with B at rate y if their effects are strictly additive and no interaction has occurred.
The test mixture was sprayed to the point of run-off on soybean seedlings. The following day the seedlings were inoculated with a spore suspension of Phakopsora pachyrhizi (the causal agent of Asian soybean rust) and incubated in a saturated atmosphere at 22° C. for 24 h and then moved to a growth chamber at 22° C. for 8 days, after which time visual disease ratings were made.
Results for Test E are given below in Tables A-1 through K-2. Each table corresponds to a set of evaluations performed together at the same time. In each table, a rating of 100 indicates 100% disease control and a rating of 0 indicates no disease control (relative to the controls). Columns labeled “Obsd” indicate the average of results observed from test run on four individual plants. Columns labeled “Exp” indicate the expected value for each treatment mixture using the Colby equation, as described above.

[2] = system: Phakopsora pachyrhizi (the causal agent of Asian soybean rust); assay: Test A: preventive spray on soybean seedlings, Asian soybean rust, visual disease rating; conditions: soybean seedlings
Procedure, shortened: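 Preventive test: soybean seedlings received a run-off spray of compound suspended at the set ppm in 50/50 acetone/water plus 250 ppm PEG400, and one day later a P. pachyrhizi spore inoculum. Visual scoring (0 none to 100 full disease control) followed 24 h saturated incubation and 8 days' growth chamber, both at 22° C.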

[3] = system: Zymoseptoria tritici (the causal agent of wheat leaf blotch); assay: Test B: preventive spray on wheat seedlings, wheat leaf blotch, visual disease rating; conditions: wheat seedlings
Procedure, shortened: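 This is a preventive test: spray application preceded Zymoseptoria tritici spore inoculation by one day. Test suspensions were in acetone/water with 250 ppm PEG400 surfactant, at the listed ppm rate. After 48 h saturated humidity at 24° C and 17 days at 20° C, visual ratings scored control from 0 to 100%.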

[4] = system: Puccinia recondita f. sp. tritici (the causal agent of wheat leaf rust); assay: Test C: preventive spray on wheat seedlings, wheat leaf rust, visual disease rating; conditions: wheat seedlings
Procedure, shortened: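 Wheat seedlings sprayed to run-off with compound in acetone/water (50/50) with 250 ppm PEG400, then inoculated with spores the following day. After 24 h saturated humidity at 20° C. and 6 days in growth chamber at 20° C., disease rated visually as % control relative to untreated controls.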

[5] = Phakopsora pachyrhizi, applied alone, read-out: Test E Obsd
[6] = Phakopsora pachyrhizi, fenpropidin alone, read-out: Test E Obsd
[7] = 10 ppm test suspension, 100 = 100% disease control, 0 = no control
[8] = test suspension 10 ppm, 100 = 100% disease control, 0 = no control

CO/C=C(/C(=O)OC)c1ccccc1COc1cccc(C(F)(F)F)n1 [picoxystrobin, reference compound]
Test E Obsd (disease control rating) ([1]; Table A-1, component (b) alone: b54.13a 1.422, b54.12a 0.303, b54.11a 0.403, picoxystrobin 20.596 ppm): 73% | Test E Obsd (disease control rating) ([1]; Table A-1, component (b) alone: b54.13a 2.276, b54.12a 0.489, b54.11a 0.652, picoxystrobin 38.865 ppm): 75% | Test E Obsd (disease control rating) ([1]; Table A-2, component (b) alone: b54.13a 1.422, b54.12a 0.303, b54.11a 0.403, b54.11d 0.346, picoxystrobin 20.596 ppm): 73% | Test E Obsd (disease control rating) ([1]; Table A-2, component (b) alone: b54.13a 2.276, b54.12a 0.489, b54.11a 0.652, b54.11d 0.764, picoxystrobin 33.865 ppm): 75% | Test E Obsd ([1]; applied alone, 20.596 ppm): 28 | Test E Obsd ([1]; applied alone, 33.865 ppm): 43 | Test E Obsd ([1]; applied alone, 33.875 ppm): 43 | Test E Obsd ([1]; picoxystrobin alone, 20.596 ppm): 28 | Test E Obsd ([1]; picoxystrobin alone, 33.865 ppm): 43

CO/C=C(/C(=O)OC)c1ccccc1Oc1cc(Oc2ccccc2C#N)ncn1 [azoxystrobin, reference compound]
Test E Obsd (disease control rating) ([1]; Table D-1, component (b) alone: cyproconazole 37.333, azoxystrobin 95.873, trifloxystrobin 20.511 ppm): 70% | Test E Obsd (disease control rating) ([1]; Table D-1, component (b) alone: cyproconazole 64.883, azoxystrobin 169.226, trifloxystrobin 35.310 ppm): 88% | Test E Obsd (disease control rating) ([1]; Table D-2, component (b) alone: cyproconazole 37.333, azoxystrobin 95.873, trifloxystrobin 20.511 ppm): 70% | Test E Obsd (disease control rating) ([1]; Table D-2, component (b) alone: cyproconazole 64.883, azoxystrobin 169.226, trifloxystrobin 35.310 ppm): 88%

CC(Cc1ccc(C(C)(C)C)cc1)CN1CCCCC1 (stereo not drawn) [fenpropidin, reference compound]
pest or weed control at 78.393 ppm [1, 5]: 0% | pest or weed control at 161.74 ppm [1, 5]: 52% | pest or weed control at 78.393 ppm [1, 6]: 0% | pest or weed control at 161.74 ppm [1, 6]: 52%

OC(Cc1ccccc1Cl)(Cn1nc[nH]c1=S)C1(Cl)CC1 (stereo not drawn) [prothioconazole, reference compound]
pest or weed control at 10.165 ppm ([1]; Phakopsora pachyrhizi, applied alone, 10.165 ppm, read-out: Test E Obsd): 34% | pest or weed control at 16.339 ppm ([1]; Phakopsora pachyrhizi, applied alone, 16.339 ppm, read-out: Test E Obsd): 56%

N#Cc1c(Cl)c(Cl)c(Cl)c(C#N)c1Cl [chlorothalonil, reference compound]
pest or weed control at 138.129 ppm ([1]; Phakopsora pachyrhizi, applied alone, 138.129 ppm, read-out: Test E Obsd): 76% | pest or weed control at 222.081 ppm ([1]; Phakopsora pachyrhizi, applied alone, 222.081 ppm, read-out: Test E Obsd): 88%

inpyrfluxam [reference compound]
Test E Obsd ([1]; inpyrfluxam alone, 0.448 ppm): 56 | Test E Obsd ([1]; inpyrfluxam alone, 1.059 ppm): 79

Cn1cc(C(=O)Nc2ccc(F)cc2-c2ccc(Cl)c(Cl)c2)c(C(F)F)n1 [bixafen, reference compound]
Test E Obsd (disease control rating) ([1]; Table B-1, component (b) alone: bixafen 11.327, fluxapyroxad 2.757, fluindapyr 8.820 ppm): 54% | Test E Obsd (disease control rating) ([1]; Table B-1, component (b) alone: bixafen 19.525, fluxapyroxad 4.748, fluindapyr 15.230 ppm): 55% | Test E Obsd (disease control rating) ([1]; Table B-2, component (b) alone: bixafen 11.327, fluxapyroxad 2.757, fluindapyr 8.820 ppm): 54% | Test E Obsd (disease control rating) ([1]; Table B-2, component (b) alone: bixafen 19.525, fluxapyroxad 4.748, fluindapyr 15.230 ppm): 55%

N#CCOC(=O)c1cnn(Cc2ccc(-c3noc(C(F)(F)F)n3)cc2)c1 [Compound 57, cyanomethyl 1-[[4-[5-(trifluoromethyl)-1,2,4-oxadiazol-3-yl]phenyl]methyl]-1H-pyrazole-4-carboxylate]
pest or weed control at 10 µg/mL ([2]; Phakopsora pachyrhizi, 216 h, test suspension 10 ppm, 100 = 100% disease control, 0 = no control, read-out: Test A disease control rating): 100% | pest or weed control at 100 µg/mL ([3]; Zymoseptoria tritici, 456 h, test suspension 100 ppm (** next to rating), read-out: Test B disease control rating): 99% | pest or weed control at 10 µg/mL ([4]; Puccinia recondita, 168 h, test suspension 10 ppm, read-out: Test C disease control rating): 100%

O=C(c1csc(Cc2ccc(-c3noc(C(F)(F)F)n3)cc2)n1)N1CCOCC1 [compound 487]
Test A disease control rating [2, 7]: 100% | Test B disease control rating ([3]; 100 ppm test suspension (double asterisk), 100 = 100% disease control): 98** % | Test C disease control rating [4, 7]: 100%

O=C(c1coc(Cc2ccc(-c3noc(C(F)(F)F)n3)cc2)n1)N1CCOCC1 [Compound 263]
Test A disease control rating [2, 8]: 100% | Test B disease control rating ([3]; test suspension 250 ppm): 95* % | Test C disease control rating ([4]; test suspension 10 ppm): 94%

O=C1CCCN1Cc1ccc(-c2noc(C(F)(F)F)n2)cc1 [compound 371]
Test A disease control rating ([2]; test suspension 250 ppm): 100% | Test B disease control rating ([3]; test suspension 250 ppm): 95* % | Test C disease control rating ([4]; test suspension 250 ppm): 100%

CCOC(=O)c1cnn(CCn2cc(-c3noc(C(F)(F)F)n3)cn2)c1 [compound 307]
Test A disease control rating ([2]; test suspension 50 ppm): 0% | Test B disease control rating ([3]; test suspension 250 ppm): 0* % | Test C disease control rating ([4]; test suspension 50 ppm): 0%

CC1(C)OCC(COC(=O)c2cnn(Cc3ccc(-c4noc(C(F)(F)F)n4)cc3)c2)O1 (stereo not drawn) [compound 496]
Test A disease control rating [2, 7]: 100% | Test B disease control rating ([3]; 250 ppm test suspension, 100 = 100% disease control): 48* % | Test C disease control rating [4, 7]: 0%

O=C(c1coc(Cc2ccc(-c3noc(C(F)(F)F)n3)cc2)n1)N1CCCC1 [compound 227]
Test A disease control rating [2, 8]: 100% | Test B disease control rating ([3]; test suspension 250 ppm): 99* % | Test C disease control rating ([4]; test suspension 10 ppm): 97%

COCCNC(=O)c1cnn(COc2ccc(-c3noc(C(F)(F)F)n3)cc2)c1 [compound 213]
Test A disease control rating [2, 8]: 100% | Test B disease control rating ([3]; test suspension 250 ppm): 82* % | Test C disease control rating ([4]; test suspension 10 ppm): 74%

O=C(NCCn1cccn1)c1csc(Cc2ccc(-c3noc(C(F)(F)F)n3)cc2)c1 [compound 289]
Test A disease control rating [2, 8]: 100% | Test B disease control rating ([3]; test suspension 250 ppm): 80* % | Test C disease control rating ([4]; test suspension 10 ppm): 100%

O=C(NCC1CC1)c1csc(Cc2ccc(-c3noc(C(F)(F)F)n3)cc2)c1 [compound 290]
Test A disease control rating [2, 8]: 100% | Test B disease control rating ([3]; test suspension 250 ppm): 53* % | Test C disease control rating ([4]; test suspension 10 ppm): 100%

COC(=O)c1ncn(Cc2ccc(-c3noc(C(F)(F)F)n3)cc2)n1 [compound 139]
Test A disease control rating ([2]; test suspension 255 ppm): 100% | Test B disease control rating ([3]; test suspension 255 ppm): 62% | Test C disease control rating ([4]; test suspension 255 ppm): 100%

CCCOC(=O)c1cnn(CCCc2ccc(-c3noc(C(F)(F)F)n3)cc2)c1 [compound 365]
Test A disease control rating ([2]; test suspension 50 ppm): 100% | Test B disease control rating ([3]; test suspension 250 ppm): 80* % | Test C disease control rating ([4]; test suspension 50 ppm): 99%

O=c1sc2ccccc2n1Cc1ccc(-c2noc(C(F)(F)F)n2)cc1 [compound 156]
Test A disease control rating ([2]; test suspension 255 ppm): 100% | Test B disease control rating ([3]; test suspension 255 ppm): 86% | Test C disease control rating ([4]; test suspension 255 ppm): 100%

CC(C)COC(=O)c1cnn(Cc2ccc(-c3noc(C(F)(F)F)n3)cc2)c1 [compound 171]
Test A disease control rating [2, 8]: 100% | Test B disease control rating ([3]; test suspension 100 ppm (** next to rating)): 37** % | Test C disease control rating ([4]; test suspension 10 ppm): 100%
